Laboratory results taken from BigSolDB 2.1.

Clc1ccccc1C(c1ccccc1)(c1ccccc1)n1ccnc1
solubility (mole fraction)
Settings | 293.2 K | 298.2 K | 303.2 K | 308.2 K | 313.2 K
in ethanol | 0.0154 | 0.0167 | 0.0216 | 0.025 | 0.0312
in water | 2.42e-08 | 2.92e-08 | 3.38e-08 | 3.77e-08 | 4.15e-08
